Assay [1] concerns the target T1, ERR1 (also known as ERR-α or ERR-1) (Homo sapiens, UniProt P11474).
T1 sequence (P11474 193-421 limits assumed): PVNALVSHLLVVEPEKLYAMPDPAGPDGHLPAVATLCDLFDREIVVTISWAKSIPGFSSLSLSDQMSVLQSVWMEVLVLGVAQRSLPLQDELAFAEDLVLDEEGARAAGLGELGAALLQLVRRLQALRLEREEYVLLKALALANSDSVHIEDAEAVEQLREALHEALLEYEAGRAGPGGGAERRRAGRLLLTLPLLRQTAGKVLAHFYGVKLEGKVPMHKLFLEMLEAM
As to the kind of experiment: TR-FRET assay (disruption of co-activator peptide binding to ERR1 LBD). The format is biochemical. The following applies: 6 nM 6His-ERR1LBD, 6 nM GST-SRC-2 peptide; average of 3 independent experiments. The method in brief:
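Homogeneous TR-FRET measuring displacement of GST-hSRC2 co-activator peptide (6 nM) from His-tagged ERR1 LBD (6 nM), detected with α-GST Eu cryptate (30 nM) and α-His-XL665 (7.5 nM). Buffer 25 mM Tris pH 8, 2.5 mM Hepes, 20 mM KCl, 1 mM DTT, 0.05 mg/mL delipidated BSA; equilibration 4-18 h at 25° C. Hyperbolic dose-response fit, mean of 3 experiments.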

The subject of assay [2] is Zucker fa/fa male rats. As to the kind of experiment: Zucker fa/fa Rat Model Assay. The following applies: po, 120 h, 10 mg/kg orally once a day for 4 days. The format is in vivo. From the text: Zucker fa/fa is a monogenic model of frank diabetes due to a mutation on the fa gene truncating the leptin receptor and preventing its interaction with its peptide hormone. This mutation results in a hyperphagic phenotype and the rodent develops obesity, hyperlipidemia, fasting hyperglycemia and insulin resistance. Zucker fa/fa male rats were received at four weeks of age and allowed to acclimate for one week. At five weeks of age the animals were single housed in cages in a temperature-controlled room with 12-hour light/dark cycle. The rats were allowed ad libitum access to water and food and throughout the study were maintained on a Purina 5008 diet. Animals were sorted based primarily on fed insulin levels and circulating triglycerides. Animals were dosed orally once a day (10 mg/kg) in the morning for 4 days. The vehicle used was either 20% HPβCD (Hydroxypropyl Beta Cyclodextrin) or 15% Vitamin E/30% PEG-400 (Polyethylene Glycol 400). Fed insulin and triglycerides were measured using blood collected from the tail vein at day 5. Serum plasma samples were prepared by centrifugation in EDTA (Ethylenediaminetetraacetic acid) containing tubes, transferred into 96 well plates and stored at −80° C.

[3] abbreviates: blood from tail vein at day 5, read-out: % Change Fed Insulin Levels.
Setting [4] is: blood from tail vein at day 5, read-out: % Change Fed Triglyceride Levels.

pEC50: −log10 of the molar value. Where two headings read alike, the source gives them in different places.

In the case of `CN1CC[C@@H](N2C(=O)S/C(=C\c3ccc4c(cnn4Cc4ccc(Cl)cc4C(F)(F)F)c3)C2=O)[C@H](F)C1` [Compound 383, (5Z)-5-({1-[4-Chloro-2-(trifluoromethyl)benzyl]-1H-indazol-5-yl}methylidene)-3-[(3R,4R)-3-fluoro-1-methylpiperidin-4-yl]-1,3-thiazolidine-2,4-dione], in assay [1], the pEC50 – broadly, the EC50 on a negative log10 scale, so that one unit is a factor of ten – was 7.64. Moreover, the change in vivo at 10 mg/kg in assay [2] (setting [3]) was -67%; in assay [2] (setting [4]) it was -68%.
With `O=C1S/C(=C\c2ccc3c(cnn3Cc3ccc(Cl)cc3C(F)(F)F)c2)C(=O)N1Cc1nn[nH]n1` [Compound 72, (5Z)-5-({1-[4-Chloro-2-(trifluoromethyl)benzyl]-1H-indazol-5-yl}methylidene)-3-(2H-tetrazol-5-ylmethyl)-1,3-thiazolidine-2,4-dione], in assay [1], the pEC50 was 7.89. In addition, the change in vivo at 10 mg/kg was -44% in assay [2] (setting [3]) and -51% in assay [2] (setting [4]).
As to `O=C1S/C(=C\c2ccc3c(cnn3Cc3ccc(Cl)cc3C(F)(F)F)c2)C(=O)N1C[C@H]1CN2CCC[C@H]2CO1` [Compound 202, (5Z)-5-({1-[4-Chloro-2-(trifluoromethyl)benzyl]-1H-indazol-5-yl}methylidene)-3-[(3R,8aS)-hexahydro-1H-pyrrolo[2,1-c] [1,4]oxazin-3-ylmethyl]-1,3-thiazolidine-2,4-dione], the negative logarithm of the EC50 (pEC50) in assay [1] is 7.46. The values for the change in vivo at 10 mg/kg in assay [2] (setting [3]) and in assay [2] (setting [4]) were -3% and -26%, respectively.
In assay [1], `CN1CC[C@H](N2C(=O)S/C(=C\c3ccc4c(cnn4Cc4ccc(Cl)cc4C(F)(F)F)c3)C2=O)[C@@H](F)C1` [Compound 384, (5Z)-5-({1-[4-Chloro-2-(trifluoromethyl)benzyl]-1H-indazol-5-yl}methylidene)-3-[(3S,4S)-3-fluoro-1-methylpiperidin-4-yl]-1,3-thiazolidine-2,4-dione] had a pEC50 of 7.66. The results for the change in vivo at 10 mg/kg in assay [2] (setting [3]) and in assay [2] (setting [4]) were -52% and -51%, respectively.
For `Cc1nn(Cc2ccc(Cl)cc2C(F)(F)F)c2ccc(/C=C3\SC(=O)N(CC(=O)O)C3=O)cc12` [Compound 36, [(5Z)-5-({1-[4-Chloro-2-(trifluoromethyl)benzyl]-3-methyl-1H-indazol-5-yl}methylidene)-2,4-dioxo-1,3-thiazolidin-3-yl]acetic acid], in assay [1], the pEC50 is 7.55. Besides, the change in vivo at 10 mg/kg in assay [2] (setting [3]) was -18%; in assay [2] (setting [4]), -4%.
For the molecule `COc1ccc(Cn2ncc3cc(/C=C4\SC(=O)N(CC(=O)O)C4=O)ccc32)c(C(F)(F)F)c1` [Compound 19, [(5Z)-5-({1-[4-Methoxy-2-(trifluoromethyl)benzyl]-1H-indazol-5-yl}methylidene)-2,4-dioxo-1,3-thiazolidin-3-yl]acetic acid], the pEC50 in assay [1] was 8.05. The change in vivo at 10 mg/kg in assay [2] (setting [3]) was -9%; in assay [2] (setting [4]), 21%.
Regarding `O=C(O)CN1C(=O)S/C(=C\c2ccc3c(cnn3Cc3ccc(Cl)cc3C(F)(F)F)c2)C1=O` [Compound 4, (5Z)-5-{[1-(4-Chloro-2-trifluoromethylbenzyl)-1H-indazol-5-yl]methylidene}-2,4-dioxothiazolidin-3-ylacetic acid], the negative-log EC50 (pEC50) in assay [1] is 8.05. Further, the change in vivo at 10 mg/kg was -50% in assay [2] (setting [3]) and -14% in assay [2] (setting [4]).
On to `COc1ccc(Cn2ncc3cc(/C=C4\SC(=O)N(C5CCC(C(=O)O)CC5)C4=O)ccc32)c(C(F)(F)F)c1` (stereo not drawn) [Compound 22, 4-[(5Z)-5-({1-[4-Methoxy-2-(trifluoromethyl)benzyl]-1H-indazol-5-yl}methylidene)-2,4-dioxo-1,3-thiazolidin-3-yl)cyclohexanecarboxylic acid], for which the pEC50 in assay [1] was 8.10. Besides, the change in vivo at 10 mg/kg was -11% in assay [2] (setting [3]) and 32% in assay [2] (setting [4]).
`NS(=O)(=O)NC(=O)CN1C(=O)S/C(=C\c2ccc3c(cnn3Cc3ccc(Cl)cc3C(F)(F)F)c2)C1=O` [Compound 31, 2-[(5Z)-5-({1-[4-Chloro-2-(trifluoromethyl)benzyl]-1H-indazol-5-yl}methylidene)-2,4-dioxo-1,3-thiazolidin-3-yl]-N-sulfamoylacetamide] gave a pEC50 in assay [1] of 7.72. The values for the change in vivo at 10 mg/kg in assay [2] (setting [3]) and in assay [2] (setting [4]) were -51% and -14%, respectively.
For `Cc1nn(Cc2ccc(Cl)cc2C(F)(F)F)c2ccc(/C=C3\SC(=O)N(CC(=O)NS(=O)(=O)N4CCCC4)C3=O)cc12` [Compound 40, 2-[(5Z)-5-({1-[4-Chloro-2-(trifluoromethyl)benzyl]-3-methyl-1H-indazol-5-yl}methylidene)-2,4-dioxo-1,3-thiazolidin-3-yl]-N-(pyrrolidin-1-ylsulfonyl)acetamide], the pEC50 in assay [1] is 7.27. The change in vivo at 10 mg/kg was -10% in assay [2] (setting [3]) and -23% in assay [2] (setting [4]).
`O=C1S/C(=C\c2ccc3c(cnn3Cc3ccc(Cl)cc3C(F)(F)F)c2)C(=O)N1O` [Compound 288, (5Z)-5-({1-[4-Chloro-2-(trifluoromethyl)benzyl]-1H-indazol-5-yl}methylidene)-3-hydroxy-1,3-thiazolidine-2,4-dione] had a negative-log EC50 (pEC50) in assay [1] of 7.80. The change in vivo at 10 mg/kg in assay [2] (setting [3]) is -35%; in assay [2] (setting [4]), -29%.
For `COc1nn(Cc2ccc(Cl)cc2C(F)(F)F)c2ccc(/C=C3\SC(=O)N(CCN4CCCC4)C3=O)cc12` [Compound 27, (5Z)-5-({1-[4-Chloro-2-(trifluoromethyl)benzyl]-3-methoxy-1H-indazol-5-yl}methylidene)-3-(2-pyrrolidin-1-ylethyl)-1,3-thiazolidine-2,4-dione] the same measures were 7.57, 9% and 0%.
Regarding `O=C1S/C(=C\c2ccc3c(cnn3Cc3ccc(Cl)cc3C(F)(F)F)c2)C(=O)N1C[C@H]1COCCN1` [Compound 170, (5Z)-5-({1-[4-Chloro-2-(trifluoromethyl)benzyl]-1H-indazol-5-yl}methylidene)-3-[(3S)-morpholin-3-ylmethyl]-1,3-thiazolidine-2,4-dione], the negative-log EC50 (pEC50) in assay [1] is 7.82. Further, the change in vivo at 10 mg/kg in assay [2] (setting [3]) is -52%; in assay [2] (setting [4]), -61%.
For `CS(=O)(=O)CCN1CCC(N2C(=O)S/C(=C\c3ccc4c(cnn4Cc4ccc(Cl)cc4C(F)(F)F)c3)C2=O)CC1` [Compound 149, (5Z)-5-({1-[4-Chloro-2-(trifluoromethyl)benzyl]-1H-indazol-5-yl}methylidene)-3-{1-[2-(methylsulfonyl)ethyl]piperidin-4-yl}-1,3-thiazolidine-2,4-dione], the pEC50 in assay [1] is 7.59. The change in vivo at 10 mg/kg in assay [2] (setting [3]) is -35%; in assay [2] (setting [4]) it was 10%.
The molecule `O=C(O)CN1C(=O)S/C(=C\c2ccc3c(c2)nnn3Cc2ccc(Cl)cc2C(F)(F)F)C1=O` [Compound 260, [(5Z)-5-({1-[4-Chloro-2-(trifluoromethyl)benzyl]-1H-benzotriazol-5-yl}methylidene)-2,4-dioxo-1,3-thiazolidin-3-yl]acetic acid] gave a pEC50 in assay [1] of 7.39. Besides, the change in vivo at 10 mg/kg in assay [2] (setting [3]) is -50%; in assay [2] (setting [4]), -23%.
On the same counts, the results for `O=C(O)C1CCC(N2C(=O)S/C(=C\c3ccc4c(cnn4Cc4ccc(Cl)cc4C(F)(F)F)c3)C2=O)CC1` (stereo not drawn) [Compound 73, 4-[(5Z)-5-({1-[4-Chloro-2-(trifluoromethyl)benzyl]-1H-indazol-5-yl}methylidene)-2,4-dioxo-1,3-thiazolidin-3-yl]cyclohexanecarboxylic acid] are 7.92, -30% and -19%.
Consider `N[C@@H](CO)CN1C(=O)S/C(=C\c2ccc3c(cnn3Cc3ccc(Cl)cc3C(F)(F)F)c2)C1=O` [Compound 167, (5Z)-3-[(2R)-2-Amino-3-hydroxypropyl]-5-({1-[4-chloro-2-(trifluoromethyl)benzyl]-1H-indazol-5-yl}methylidene)-1,3-thiazolidine-2,4-dione], for which, in assay [1], the pEC50 was 7.64. For the same molecule, the change in vivo at 10 mg/kg in assay [2] (setting [3]) is -33%; in assay [2] (setting [4]) it was -45%.
For the molecule `COc1ccc(Cn2ncc3cc(/C=C4\SC(=O)N(CCN5CCOCC5)C4=O)ccc32)c(C(F)(F)F)c1` [Compound 8, (5Z)-5-[(1-{[4-(Methyloxy)-2-(trifluoromethyl)phenyl]methyl}-1H-indazol-5-yl)methylidene]-3-(2-morpholin-4-ylethyl)-1,3-thiazolidine-2,4-dione], the pEC50 in assay [1] was 8.10. The change in vivo at 10 mg/kg in assay [2] (setting [3]) is -21%; in assay [2] (setting [4]) it was -19%.

Source of the values: patent publication US8796256B2 (Janssen Pharmaceutica NV, priority 2010, dated 2014).
